Assay results: the supplement of paper PMC4862054

Columns and labels:
Conditions in all cases: incubation time: 72 h
MDA-MB-231 [1] = test: normalised viability (% of control), CellTiter-Blue; higher = more viable cells (about 100 = DMSO control)
Summary of the method: (§1)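 Breast cancer cell lines in 20 µl suspension were seeded onto 384-well plates pre-loaded with compound dissolved in 5 µl medium, then incubated 72 h. CellTiter-Blue reagent (2.5 µl) was added for 2 h at 37 °C and fluorescence read at 560/590 nm. Each plate was normalised to vehicle (100) and a positive kill control (0), with Z'-factor quality control. The value is normalised viability at one listed concentration of the series.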

MDA-MB-453 = test: as above
Summary of the method: as §1

BT-549 = test: as above
Summary of the method: as §1

SK-BR-3 = test: as above
Summary of the method: as §1

Hs578T [2] = test: as above
Summary of the method: as §1

MDA-MB-468 = test: as above
Summary of the method: as §1

HDQ-P1 = test: as above
Summary of the method: as §1

HCC1937 [3] = test: as above
Summary of the method: as §1

DU-4475 = test: as above
Summary of the method: as §1

BT-474 = test: as above
Summary of the method: as §1

CAL-85-1 = test: as above
Summary of the method: as §1

HCC1599 = test: as above
Summary of the method: as §1

HCC1143 = test: as above
Summary of the method: as §1

MFM-223 = test: as above
Summary of the method: as §1

MDA-MB-436 = test: as above
Summary of the method: as §1

CAL-51 = test: as above
Summary of the method: as §1

Hs578T [4] = test: drug sensitivity score (DSS), CellTox Green (DSS (AUC-based score)); higher = stronger drug effect (viability inhibition or cytotoxicity); extreme values may be limits of the assay
Summary of the method: (§2)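 Normalisation on every plate relied on 0.1 % DMSO and a positive kill control. The plates, 384-well format, held compound at 5 concentrations 10-fold apart across a compound-specific 10,000-fold range, and breast cancer cell lines in 20 µl suspension were incubated on them for 72 h before CellTox Green and then CellTiter-Glo readings. The drug sensitivity score derives from the area under the fitted dose-response curve.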

HCC1937 [5] = test: as above
Summary of the method: as §2

MDA-MB-231 [6] = test: as above
Summary of the method: as §2

Compound: Clc1ccc(C(c2ccccc2Cl)C(Cl)Cl)cc1 (stereo not given) [Mitotane]
- normalised viability (MDA-MB-231 [1]; 10 nM): 85.4%
- normalised viability (MDA-MB-231 [1]; 1000 nM): 94.8%
- normalised viability (MDA-MB-231 [1]; 10000 nM): 119%
- normalised viability (MDA-MB-453; 3 nM): 117%
- normalised viability (MDA-MB-453; 30 nM): 94.6%
- normalised viability (MDA-MB-453; 100 nM): 103%
- normalised viability (BT-549; 10 nM): 83%
- normalised viability (BT-549; 1000 nM): 93%
- normalised viability (BT-549; 10000 nM): 102%
- normalised viability (SK-BR-3; 10 nM): 105%
- normalised viability (SK-BR-3; 1000 nM): 104%
- normalised viability (SK-BR-3; 10000 nM): 82.3%
- normalised viability (Hs578T [2]; 10 nM): 96.6%
- normalised viability (Hs578T [2]; 1000 nM): 86.7%
- normalised viability (Hs578T [2]; 10000 nM): 107%
- normalised viability (MDA-MB-468; 10 nM): 108%
- normalised viability (MDA-MB-468; 1000 nM): 102%
- normalised viability (MDA-MB-468; 10000 nM): 102%
- normalised viability (HDQ-P1; 3 nM): 117%
- normalised viability (HDQ-P1; 30 nM): 102%
- normalised viability (HDQ-P1; 100 nM): 100%
- normalised viability (HCC1937 [3]; 10 nM): 79.9%
- normalised viability (HCC1937 [3]; 1000 nM): 91.1%
- normalised viability (HCC1937 [3]; 10000 nM): 79.4%
- normalised viability (DU-4475; 3 nM): 109%
- normalised viability (DU-4475; 30 nM): 87.5%
- normalised viability (DU-4475; 100 nM): 93.9%
- normalised viability (BT-474; 10 nM): 118%
- normalised viability (BT-474; 1000 nM): 108%
- normalised viability (BT-474; 10000 nM): 130%
- normalised viability (CAL-85-1; 3 nM): 92.6%
- normalised viability (CAL-85-1; 30 nM): 86.2%
- normalised viability (CAL-85-1; 100 nM): 101%
- normalised viability (HCC1599; 10 nM): 97%
- normalised viability (HCC1599; 1000 nM): 88.2%
- normalised viability (HCC1599; 10000 nM): 97.1%
- normalised viability (HCC1143; 10 nM): 82.9%
- normalised viability (HCC1143; 1000 nM): 81.2%
- normalised viability (HCC1143; 10000 nM): 91.4%
- normalised viability (MFM-223; 10 nM): 90.3%
- normalised viability (MFM-223; 1000 nM): 96%
- normalised viability (MFM-223; 10000 nM): 87.9%
- normalised viability (MDA-MB-436; 10 nM): 88.9%
- normalised viability (MDA-MB-436; 1000 nM): 106%
- normalised viability (MDA-MB-436; 10000 nM): 90.9%
- normalised viability (CAL-51; 3 nM): 117%
- normalised viability (CAL-51; 30 nM): 106%
- normalised viability (CAL-51; 100 nM): 107%
- drug sensitivity score (Hs578T [4]): 0
- drug sensitivity score (HCC1937 [5]): 1.4

Compound: CCN1CCN(c2ccc(Nc3cc(N(C)C(=O)Nc4c(Cl)c(OC)cc(OC)c4Cl)ncn3)cc2)CC1 [NVP-BGJ398]
- drug sensitivity score (MDA-MB-231 [6]): 2.84
- drug sensitivity score (Hs578T [4]): 0
- drug sensitivity score (HCC1937 [5]): 0

Compound: N#CC[C@H](C1CCCC1)n1cc(-c2ncnc3[nH]ccc23)cn1 [Ruxolitinib]
- normalised viability (MDA-MB-231 [1]; 10 nM): 72.7%
- normalised viability (MDA-MB-231 [1]; 1000 nM): 101%
- normalised viability (MDA-MB-231 [1]; 10000 nM): 110%
- normalised viability (MDA-MB-453; 3 nM): 86.8%
- normalised viability (MDA-MB-453; 30 nM): 89.2%
- normalised viability (MDA-MB-453; 100 nM): 93.9%
- normalised viability (BT-549; 10 nM): 86.3%
- normalised viability (BT-549; 1000 nM): 90.9%
- normalised viability (BT-549; 10000 nM): 73.4%
- normalised viability (SK-BR-3; 10 nM): 95.4%
- normalised viability (SK-BR-3; 1000 nM): 87.3%
- normalised viability (SK-BR-3; 10000 nM): 103%
- normalised viability (Hs578T [2]; 10 nM): 108%
- normalised viability (Hs578T [2]; 1000 nM): 104%
- normalised viability (Hs578T [2]; 10000 nM): 93.5%
- normalised viability (MDA-MB-468; 10 nM): 90.5%
- normalised viability (MDA-MB-468; 1000 nM): 104%
- normalised viability (MDA-MB-468; 10000 nM): 100%
- normalised viability (HDQ-P1; 3 nM): 84%
- normalised viability (HDQ-P1; 30 nM): 83.6%
- normalised viability (HDQ-P1; 100 nM): 104%
- normalised viability (HCC1937 [3]; 10 nM): 114%
- normalised viability (HCC1937 [3]; 1000 nM): 94.1%
- normalised viability (HCC1937 [3]; 10000 nM): 74%
- normalised viability (DU-4475; 3 nM): 103%
- normalised viability (DU-4475; 30 nM): 106%
- normalised viability (DU-4475; 100 nM): 121%
- normalised viability (BT-474; 10 nM): 108%
- normalised viability (BT-474; 1000 nM): 103%
- normalised viability (BT-474; 10000 nM): 119%
- normalised viability (CAL-85-1; 3 nM): 114%
- normalised viability (CAL-85-1; 30 nM): 90.4%
- normalised viability (CAL-85-1; 100 nM): 110%
- normalised viability (HCC1599; 10 nM): 114%
- normalised viability (HCC1599; 1000 nM): 102%
- normalised viability (HCC1599; 10000 nM): 91.1%
- normalised viability (HCC1143; 10 nM): 107%
- normalised viability (HCC1143; 1000 nM): 107%
- normalised viability (HCC1143; 10000 nM): 98.2%
- normalised viability (MFM-223; 10 nM): 101%
- normalised viability (MFM-223; 1000 nM): 98.6%
- normalised viability (MFM-223; 10000 nM): 75.3%
- normalised viability (MDA-MB-436; 10 nM): 93.2%
- normalised viability (MDA-MB-436; 1000 nM): 112%
- normalised viability (MDA-MB-436; 10000 nM): 102%
- normalised viability (CAL-51; 3 nM): 84.6%
- normalised viability (CAL-51; 30 nM): 97%
- normalised viability (CAL-51; 100 nM): 97.4%
- drug sensitivity score (MDA-MB-231 [6]): 0
- drug sensitivity score (Hs578T [4]): 0

Compound: O=C(c1ccc(C(=O)N2CCC(N3CCCC3)CC2)c(Nc2ccccc2)c1)N1CCC(N2CCCC2)CC1 [UNC1215]
- drug sensitivity score (MDA-MB-231 [6]): 0
- drug sensitivity score (HCC1937 [5]): 0
